Experimental data: US12110305B2, “Prodrugs of phosphonamide nucleotide analogues and their pharmaceutical use” (priority 2020, dated 2024)

The molecules below were run on HIV-1 (IIIB) (assay: Antiviral (HIV) assay in MT-4 cells). Conditions: Human immunodeficiency virus 1, MT4, 120 h; HIV-1 IIIB in MT-4 cells, 5 days incubation, Cell Titer Glo; average of at least two independent experiments.
Format: cell-based
Outline: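 MT-4 cells, infected with HIV-1 IIIB (1:250 dilution of concentrated stock) or mock-infected, were exposed to 1:3 serially diluted compounds in RPMI with 10% FBS. After 5 days at 37° C., CellTiter-Glo luminescence was read. EC50 = concentration causing […], from sigmoidal dose-response fits.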
With CCCCCCOC(=O)C(C)(C)NP(=O)(CO[C@H](C)Cn1cnc2c(=N)n(Cc3oc(=O)oc3C)cnc21)NC(C)(C)C(=O)OCCCCCC [Example 83, Dihexyl 2,2′-(((((1-(6-imino-1-((5-methyl-2-oxo-1,3-dioxol-4-yl)methyl)-1,6-dihydro-9H-purin-9-yl)propan-2-yl)oxy)methyl)phosphoryl)bis(azanediyl))(R)-bis(2-methylpropanoate)] the EC50 was 6 nM.
For CCCCCCOC(=O)C(C)(C)NP(=O)(CO[C@H](C)Cn1cnc2/c(=N\Cc3oc(=O)oc3C)n(Cc3oc(=O)oc3C)cnc21)NC(C)(C)C(=O)OCCCCCC [Example 84, Dihexyl 2,2′-(((((1-(1-((5-methyl-2-oxo-1,3-dioxol-4-yl)methyl)-6-(((5-methyl-2-oxo-1,3-dioxol-4-yl)methyl)imino)-1,6-dihydro-9H-purin-9-yl)propan-2-yl)oxy)methyl)phosphoryl)bis(azanediyl))(R,E)-bis(2-methylpropanoate)], the EC50 was 229 nM.
Work on C[C@H](Cn1cnc2c(N)ncnc21)OCP(=O)(NC(C)(C)C(=O)O[C@H]1C[C@@H](c2ccccc2)C1)NC(C)(C)C(=O)O[C@H]1C[C@@H](c2ccccc2)C1 [Example 85, Bis((1s,3S)-3-phenylcyclobutyl) 2,2′-((((((R)-1-(6-amino-9H-purin-9-yl)propan-2-yl)oxy)methyl)phosphoryl)bis(azanediyl))bis(2-methylpropanoate)] yielded an EC50 of 5 nM.
C[C@H](Cn1cnc2c(N)ncnc21)OCP(=O)(NC(C)(C)C(=O)OC1CC2(CCCCC2)C1)NC(C)(C)C(=O)OC1CC2(CCCCC2)C1 (stereo partly drawn) [Example 86, Di(spiro[3.5]nonan-2-yl) 2,2′-(((((1-(6-amino-9H-purin-9-yl)propan-2-yl)oxy)methyl)phosphoryl)bis(azanediyl))(R)-bis(2-methylpropanoate)] was tested, and the EC50 was 5 nM.
For C[C@H](Cn1cnc2c(N)ncnc21)OCP(=O)(NC(C)(C)C(=O)OCC12CCC(CC1)C2)NC(C)(C)C(=O)OCC12CCC(CC1)C2 [Example 87, Bis(bicyclo[2.2.1]heptan-1-ylmethyl) 2,2′-(((((1-(6-amino-9H-purin-9-yl)propan-2-yl)oxy)methyl)phosphoryl)bis(azanediyl))(R)-bis(2-methylpropanoate)], the EC50 was 6 nM.
Molecule C[C@H](Cn1cnc2c(N)ncnc21)OCP(=O)(NC(C)(C)C(=O)OCC1CCC(F)(F)CC1)NC(C)(C)C(=O)OCC1CCC(F)(F)CC1 [Example 88, Bis((4,4-difluorocyclohexyl)methyl) 2,2′-(((((1-(6-amino-9H-purin-9-yl)propan-2-yl)oxy)methyl)phosphoryl)bis(azanediyl))(R)-bis(2-methylpropanoate)] has an EC50 of 3 nM.
C[C@H](Cn1cnc2c(N)ncnc21)OCP(=O)(NC(C)(C)C(=O)OCC1CCCCCC1)NC(C)(C)C(=O)OCC1CCCCCC1 [Example 89, Bis(cycloheptylmethyl) 2,2′-(((((1-(6-amino-9H-purin-9-yl)propan-2-yl)oxy)methyl)phosphoryl)bis(azanediyl))(R)-bis(2-methylpropanoate)] showed an EC50 of 6 nM.
Work on C[C@H](Cn1cnc2c(N)ncnc21)OCP(=O)(NC(C)(C)C(=O)OC1CC(C2CCC2)C1)NC(C)(C)C(=O)OC1CC(C2CCC2)C1 (stereo partly drawn) [Example 90, Di([1,1′-bi(cyclobutan)]-3-yl) 2,2′-(((((1-(6-amino-9H-purin-9-yl)propan-2-yl)oxy)methyl)phosphoryl)bis(azanediyl))(R)-bis(2-methylpropanoate)] yielded an EC50 of 7 nM.
In the case of C[C@H](Cn1cnc2c(N)ncnc21)OCP(=O)(NC(C)(C)C(=O)OC[C@H]1CC[C@H](C)CC1)NC(C)(C)C(=O)OC[C@H]1CC[C@H](C)CC1 [Example 91, Bis((trans-4-methylcyclohexyl)methyl) 2,2′-((((((R)-1-(6-amino-9H-purin-9-yl)propan-2-yl)oxy)methyl)phosphoryl)bis(azanediyl))bis(2-methylpropanoate)], the EC50 is reported as 5 nM.
In the case of CCC[C@H]1CC[C@H](COC(=O)C(C)(C)NP(=O)(CO[C@H](C)Cn2cnc3c(N)ncnc32)NC(C)(C)C(=O)OC[C@H]2CC[C@H](CCC)CC2)CC1 [Example 92], the EC50 is reported as 23 nM.
